Experiments:
Ba/F3_KRAS^G12D cells = Ba/F3_KRAS^G12D cells (Homo sapiens, UniProt P01116, G12D, cells depend on it); test: Ba/F3 KRAS G12D cell proliferation assay (CellTiter-Glo); assay type: cell-based; details: treated for 3 days, cell-titer Glo, cell growth inhibition, read-out: BaF3_KRAS^G12D IC50
Outline: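 KRAS G12D-transduced Ba/F3 cells, IL3-independent and puromycin-selected, seeded at 5×10^3/well overnight, then given serially diluted compound for 3 days. Proliferation read by CellTiter-Glo luminescence. IC50 from a four-parameter logistic fit with Hill slope.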

[1] = target: recombinant human KRAS^G12D protein (Homo sapiens, UniProt P01116, G12D); test: Temperature-dependent Fluorescence (TdF) KRAS G12D protein binding assay; details: 6 μM KRAS^G12D protein, 10 μM compound, Sypro Orange; Kd calculated from the fluorescent shift
Sequence of recombinant human KRAS^G12D protein (P01116 1-188 isoform P01116-2 G12D): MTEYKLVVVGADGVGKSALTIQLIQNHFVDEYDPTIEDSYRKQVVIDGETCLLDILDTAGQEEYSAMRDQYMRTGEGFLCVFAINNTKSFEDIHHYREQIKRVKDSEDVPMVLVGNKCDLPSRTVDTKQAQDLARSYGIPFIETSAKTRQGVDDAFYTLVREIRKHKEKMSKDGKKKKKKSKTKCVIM
Outline: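 Thermal-shift binding with Sypro Orange: 6 μM KRAS^G12D and 10 μM compound in 25 mM HEPES pH 7.5, 150 mM NaCl, 10 mM MgCl2, 1% DMSO. Binding read as ΔTm with versus without compound; Kd calculated from the degree of fluorescence shift.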

Sequence of Ba/F3_KRAS^G12D cells (P01116 whole entry G12D): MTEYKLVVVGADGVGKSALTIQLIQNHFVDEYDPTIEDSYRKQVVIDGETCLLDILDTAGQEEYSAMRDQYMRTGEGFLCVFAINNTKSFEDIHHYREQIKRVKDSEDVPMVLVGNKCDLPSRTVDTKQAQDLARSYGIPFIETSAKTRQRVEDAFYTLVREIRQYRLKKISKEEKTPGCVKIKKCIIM

GI50 (Ba/F3_KRAS^G12D cells)	Kd [1]	Compound
500 to 5000 nM	< 500 nM	CN1CCC1COc1nc(N2CC3CCC(C2)N3)c2cc(Cl)c(-c3cc(O)cc4ccccc34)c(F)c2n1 (stereo not shown) [Compound 79]
> 5000 nM	< 500 nM	CN1C[C@H](O)C[C@H]1COc1nc(N2CC3CCC(C2)N3)c2cc(Cl)c(-c3cc(O)cc4ccccc34)c(F)c2n1 [Compound 80]
500 to 5000 nM	< 500 nM	Oc1cc(-c2c(Cl)cc3c(N4CC5CCC(C4)N5)nc(OCC45CCCN4CC(F)(F)C5)nc3c2F)c2ccccc2c1 (stereo not shown) [Compound 81]
> 5000 nM	> 5000 nM	Oc1cc(-c2ccc3c(N4CC5CCC(C4)N5)nc(OCC45CCCN4CCC5)nc3c2F)c2c(Cl)cccc2c1 [Compound 82]
500 to 5000 nM	> 5000 nM	CN1CCN(c2nc(N3CC4CCC(C3)N4)c3cc(Cl)c(-c4cc(O)cc5ccccc45)c(F)c3n2)CC1 [Compound 83]
< 500 nM	< 500 nM	Oc1cc(-c2c(Cl)cc3c(N4CC5CCC(C4)N5)nc(OCC45CCCN4CCC5)nc3c2F)c2ccccc2c1 [Compound 85]
< 500 nM	< 500 nM	N#Cc1cc2c(N3CC4CCC(C3)N4)nc(OC[C@@]34CCCN3C[C@H](F)C4)nc2c(F)c1-c1cc(O)cc2ccccc12 [Compound 86]
500 to 5000 nM	500 to 5000 nM	Cc1cccc2cccc(-c3c(C#N)cc4c(N5CC6CCC(C5)N6)nc(OC[C@@]56CCCN5C[C@H](F)C6)nc4c3F)c12 [Compound 87]
< 500 nM	< 500 nM	Cc1cccc2cc(O)cc(-c3c(C#N)cc4c(N5CC6CCC(C5)N6)nc(OC[C@@]56CCCN5C[C@H](F)C6)nc4c3F)c12 [Compound 88]
500 to 5000 nM	500 to 5000 nM	N#Cc1cc2c(N3CC4CCC(C3)N4)nc(OC[C@@]34CCCN3C[C@H](F)C4)nc2c(F)c1-c1cccc2cccc(Cl)c12 [Compound 89]
500 to 5000 nM	> 5000 nM	N#Cc1cc2c(N3CC4CCC(C3)N4)nc(OC[C@@]34CCCN3C[C@H](F)C4)nc2c(F)c1-c1c(N)cccc1F [Compound 91]
< 500 nM	< 500 nM	Cc1ccc2[nH]ncc2c1-c1c(C#N)cc2c(N3CC4CCC(C3)N4)nc(OC[C@@]34CCCN3C[C@H](F)C4)nc2c1F [Compound 92]
500 to 5000 nM	> 5000 nM	N#CC[C@H]1CN(c2nc(OC[C@@]34CCCN3C[C@H](F)C4)nc3c(F)c(-c4cc(O)cc5ccccc45)c(Cl)cc23)CCN1 [Compound 96]
500 to 5000 nM	< 500 nM	Cc1cc(F)c2sc(N)nc2c1-c1c(Cl)cc2c(N3CC4CCC(C3)N4)nc(OC[C@@]34CCCN3C[C@H](F)C4)nc2c1F [Compound 100]
500 to 5000 nM	> 5000 nM	Cc1cc(-c2c(Cl)cc3c(N4CC5CCC(C4)N5)nc(OC[C@@H]4CCCN4C)nc3c2F)cc2[nH]ncc12 [Compound 109]
> 5000 nM	500 to 5000 nM	Nc1cc2ccccc2c(-c2c(Cl)cc3c(N4CC5CCC(C4)N5)nc(OCC45CCCN4CCC5)nc3c2F)n1 [Compound 116]
> 5000 nM	> 5000 nM	CN1CCC[C@H]1COc1nc(-c2cnc(N)s2)c2cc(Cl)c(-c3cc(O)cc4cccc(Cl)c34)c(F)c2n1 [Compound 121]

GI50 (Ba/F3_KRAS^G12D cells)	Kd [1]	Compound
> 5000 nM	< 500 nM	CNC(=O)c1cc2c(N3CC4CCC(C3)N4)nc(OC[C@@]34CCCN3C[C@H](F)C4)nc2c(F)c1-c1cc(O)cc2cccc(Cl)c12 [Compound 122]
< 500 nM	< 500 nM	Oc1cc(-c2c(OCC3CC3)cc3c(N4CC5CCC(C4)N5)nc(OC[C@@]45CCCN4C[C@H](F)C5)nc3c2F)c2c(Cl)cccc2c1 [Compound 124]
500 to 5000 nM	500 to 5000 nM	Oc1cc(-c2c(Cl)cc3c(N4CCNCC4)nc(OC[C@@]45CCCN4C[C@H](F)C5)nc3c2F)c2ccccc2c1 [Compound 126]
500 to 5000 nM	500 to 5000 nM	C[C@H]1CNCCN1c1nc(OC[C@@]23CCCN2C[C@H](F)C3)nc2c(F)c(-c3cc(O)cc4ccccc34)c(Cl)cc12 [Compound 127]
500 to 5000 nM	> 5000 nM	C[C@@H]1CN(c2nc(OC[C@@]34CCCN3C[C@H](F)C4)nc3c(F)c(-c4cc(O)cc5ccccc45)c(Cl)cc23)[C@@H](C)CN1 [Compound 128]
< 500 nM	< 500 nM	N#Cc1cc2c(N3CC4CCC(C3)N4)nc(OC[C@@]34CCCN3C[C@H](F)C4)nc2c(F)c1-c1cc(O)cc2ccc(F)c(Cl)c12 [Compound 129]
> 5000 nM	> 5000 nM	Cc1cc(N)nc(-c2c(Cl)cc3c(N4CC5CCC(C4)N5)nc(OC[C@@H]4CCCN4C)nc3c2F)c1 [Compound 130]
500 to 5000 nM	< 500 nM	Cc1cccc2cccc(-c3c(Cl)cc4c(N5CC6CCC(C5)N6)nc(OC[C@@]56CCCN5C[C@H](F)C6)nc4c3F)c12 [Compound 131]
500 to 5000 nM	< 500 nM	Nc1nc2c(-c3c(Cl)cc4c(N5CC6CCC(C5)N6)nc(OC[C@@]56CCCN5C[C@H](F)C6)nc4c3F)cc(C(F)(F)F)cc2s1 [Compound 132]
> 5000 nM	> 5000 nM	Cc1cc(N)nc(-c2c(Cl)cc3c(N4CCN[C@@H](CC#N)C4)nc(OC[C@@H]4C[C@@H](F)CN4C)nc3c2F)c1C(F)(F)F [Compound 135]
500 to 5000 nM	< 500 nM	Cc1cccc2cc(F)cc(-c3c(Cl)cc4c(N5CC6CCC(C5)N6)nc(OC[C@@]56CCCN5C[C@H](F)C6)nc4c3F)c12 [Compound 137]
500 to 5000 nM	500 to 5000 nM	Nc1nc2c(-c3c(Cl)cc4c(N5CC6CCC(C5)N6)ncnc4c3F)ccc(F)c2s1 [Compound 140]
500 to 5000 nM	< 500 nM	Nc1nc2c(-c3c(Cl)cc4c(N5CC6CCC(C5)N6)nc(OC[C@@]56CCCN5C[C@H](F)C6)nc4c3F)ccc(C(F)(F)F)c2s1 [Compound 143]
500 to 5000 nM	> 5000 nM	COc1nc(N2CC3CCC(C2)N3)c2cc(Cl)c(-c3nc(N)cc(C)c3C(F)(F)F)c(F)c2n1 [Compound 144]
< 500 nM	< 500 nM	C#Cc1c(F)ccc2cc(O)cc(-c3c(Cl)cc4c(N5CC6CCC(C5)N6)nc(OC[C@@]56CCCN5C[C@H](F)C6)nc4c3F)c12 [Compound 146]
< 500 nM	< 500 nM	C#Cc1c(F)ccc2cc(O)cc(-c3c(OC)cc4c(N5CC6CCC(C5)N6)nc(OC[C@@]56CCCN5C[C@H](F)C6)nc4c3F)c12 [Compound 163]
< 500 nM	< 500 nM	C#Cc1c(F)ccc2cc(O)cc(-c3cc(Cl)c4c(N5CC6CCC(C5)N6)nc(OC[C@@]56CCCN5C[C@H](F)C6)nc4c3F)c12 [Compound 168]

Compound	GI50 (Ba/F3_KRAS^G12D cells)	Kd [1]
Cc1cc(N)nc(-c2c(Cl)cc3c(N4CC5CCC(C4)N5)nc(OC[C@@]45CCCN4C[C@H](F)C5)nc3c2F)c1C(F)(F)F [Compound 142]	< 500 nM	< 500 nM

Reference: patent US20230242544A1, “QUINAZOLINE COMPOUNDS, PREPARATION METHODS AND USES THEREOF” (INVENTISBIO CO., LTD., priority 2020, published 2023)
